# Experiments:
# [1] = target: T1, E. coli alkaline phosphatase, trypsin-modified (tm-AP; NH2-terminal 10 or 11 amino acids removed, cleaved at Arg-10 Ala-11) (Escherichia coli, UniProt P00634); assay: Kinetic constants, hydrolysis of PNPP to p-nitrophenol; type: biochemical; conditions: trypsin-modified enzyme, 1M Tris HCl
# T1 construct: trypsin cleaves the Arg-10 Ala-11 bond leaving Ala as the NH2 -terminal residue; made in house; host or cells: E. coli strain CW3747 enzyme treated with trypsin, purified by chromatofocusing
# Procedure: The enzyme was assayed as described under "Materials and Methods" in Example I except that the assay solution contained K2 HPO4 at the indicated concentration and PNPP at concentrations ranging from 5×10^-6 to 1×10^-3 M.
# Enzyme and Chemicals - Alkaline phosphatase was isolated from E. coli strain CW3747 (A.T.C.C. 27256) according to the method described by Applebury et al. (Applebury, M. L. et al. J. Biol. Chem. 245: 4968 (1970)). Enzyme concentrations were determined spectrophotometrically at 278 nm using E1 cm^0.1% =0.72. Molar calculations were based on Mr =94,000. The enzyme activity was assayed as the rate of hydrolysis of PNPP^1 to p-nitrophenol. The reaction was monitored by following the increase in absorbance at 410 nm (Δε=1.62×10^4M^-1 cm^-1) in a solution of 1×10^-3 M PNPP, 1M Tris HCl, 10 mM MgCl2, 5×10^-5 M ZnCl2, pH 8.0, 20° C. […] Trypsin, PNPP, and carboxypeptidase Y were obtained from Sigma. […] All other chemicals employed were reagent grade.
# To prepare trypsin-modified alkaline phosphatase, native alkaline phosphatase (3 mg/ml) was treated with 10% (w/w) trypsin for 60 min at 20° C. and the major protein peak was isolated using the above chromatofocusing procedure.
# [2] = target: T2, E. coli alkaline phosphatase, native (strain CW3747) (Escherichia coli, UniProt P00634); assay: as above; type: biochemical; conditions: native enzyme, 1M Tris HCl
# T2 construct: The monomer is an unglycosylated single chain of 449 amino acids in its mature form; made in house; host or cells: E. coli strain CW3747 (ATCC 27256), enzyme isolated by the method of Applebury et al. 1970
# Procedure: B, Native alkaline phosphatase, [K2 HPO4 ]-0 (0), 1×10^-5 M ( ), 3×10^-5 M (Δ). The enzyme was assayed as described under "Materials and Methods" in Example I except that the assay solution contained K2 HPO4 at the indicated concentration and PNPP at concentrations ranging from 5×10^-6 to 1×10^-3 M.
# Enzyme and Chemicals - Alkaline phosphatase was isolated from E. coli strain CW3747 (A.T.C.C. 27256) according to the method described by Applebury et al. (Applebury, M. L. et al. J. Biol. Chem. 245: 4968 (1970)). Enzyme concentrations were determined spectrophotometrically at 278 nm using E1 cm^0.1% =0.72. Molar calculations were based on Mr =94,000. The enzyme activity was assayed as the rate of hydrolysis of PNPP^1 to p-nitrophenol. The reaction was monitored by following the increase in absorbance at 410 nm (Δε=1.62×10^4M^-1 cm^-1) in a solution of 1×10^-3 M PNPP, 1M Tris HCl, 10 mM MgCl2, 5×10^-5 M ZnCl2, pH 8.0, 20° C.
# [3] = 10 mM MgCl2, 5×10^-5 M ZnCl2, pH 8.0, 20° C, PNPP 5×10^-6 to 1×10^-3 M
# T2 sequence (P00634 23-471): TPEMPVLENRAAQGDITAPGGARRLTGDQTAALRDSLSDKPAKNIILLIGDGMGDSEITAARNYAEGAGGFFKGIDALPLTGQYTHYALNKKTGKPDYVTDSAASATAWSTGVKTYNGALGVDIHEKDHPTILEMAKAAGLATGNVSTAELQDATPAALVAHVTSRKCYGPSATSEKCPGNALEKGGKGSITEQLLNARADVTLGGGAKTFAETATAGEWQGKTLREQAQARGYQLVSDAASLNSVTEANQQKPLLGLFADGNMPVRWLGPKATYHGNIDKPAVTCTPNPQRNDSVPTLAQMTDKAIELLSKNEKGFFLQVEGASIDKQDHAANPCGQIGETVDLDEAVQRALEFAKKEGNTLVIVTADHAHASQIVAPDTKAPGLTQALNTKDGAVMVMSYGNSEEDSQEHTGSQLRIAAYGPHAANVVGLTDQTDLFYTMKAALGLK
# T1 sequence (P00634 33-471): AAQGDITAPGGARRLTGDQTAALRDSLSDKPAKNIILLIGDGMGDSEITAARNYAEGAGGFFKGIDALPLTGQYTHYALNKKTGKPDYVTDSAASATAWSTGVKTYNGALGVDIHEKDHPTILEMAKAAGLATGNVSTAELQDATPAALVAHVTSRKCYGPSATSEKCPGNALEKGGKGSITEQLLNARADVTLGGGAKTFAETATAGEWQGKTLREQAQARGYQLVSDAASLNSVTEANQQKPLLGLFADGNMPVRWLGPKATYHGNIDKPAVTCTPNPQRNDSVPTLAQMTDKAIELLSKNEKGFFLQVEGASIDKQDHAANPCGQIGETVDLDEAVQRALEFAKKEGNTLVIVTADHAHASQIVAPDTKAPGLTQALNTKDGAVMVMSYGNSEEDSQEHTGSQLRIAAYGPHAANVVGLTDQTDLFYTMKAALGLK
compound,measurement,setting,value
"O=[N+]([O-])c1ccc(OP(=O)(O)O)cc1 [PNPP, p-nitrophenolphosphate]",Km,[1]; [3],19 µM
same,Vmax (PNPP),"[1]; pH 8.0, 20° C",2000 µmol/h/mg
same,Km,[2]; [3],40 µM
same,Vmax (PNPP),"[2]; pH 8.0, 20° C",2500 µmol/h/mg

# — US4656128A, “Modified alkaline phosphatase” (Research Corporation, priority 1985, dated 1987)
